Assay results from patent US9284283B2, “Macrocyclic compounds for modulating IL-17” (ENSEMBLE THERAPEUTICS CORPORATION, priority 2012, dated 2016).
pIC50: −log10 of the molar value.

Columns and labels:
[1] = tested on: IL-17A induced secretion of IL-6 in primary human RASF cells; assay: Inhibition of IL17A induced secretion of IL6 in human rheumatoid arthritis synovial fibroblast (RASF) cells; format: cell-based; settings: Homo sapiens, Fibroblast
Method: This assay was used to determine the extent of inhibition of IL-17A induced secretion of IL-6 in primary human rheumatoid synovial fibroblast (RASF) cells by compounds of the invention. IL-17A is known to stimulate IL-6 production in RASF cells.
Low passage (passage 2-8) Primary human RASF cells (Asterand) were maintained in maintenance medium. Cells were detached from flasks by tryptic digestion and the cell density of the suspension determined. To each well of a 96 well culture plate was added 100 μL of seeding medium containing 50,000 cells/mL and the plate incubated overnight in a humidified 37° C., 5% CO2 incubator. The medium was replaced with fresh assay medium and cells were incubated for additional 5 hours in a humidified 37° C., 5% CO2 incubator prior to stimulation with recombinant human IL-17A (“rhIL-17A”). Prior to addition to cells, rhIL-17A (30 ng/mL) in assay medium was incubated with either DMSO alone, compounds, or anti-IL17 receptor antibody (3 μg/mL) for 1 hour at 37° C. The final concentration of DMSO in all samples was 0.25%. The final concentration of compounds varied from 0.03 μM to 25 μM.
Immediately before stimulation, cells were washed once with fresh assay medium. Then, 100 μL of the test samples was added in triplicate wells and the plates incubated for 20 hours in a humidified 37° C., 5% CO2 incubator. The assay medium from each well was collected and the IL-6 concentration in cell culture supernatants was determined by ELISA either immediately or after storage at −20° C.
A water-soluble tetrazolium salt (WST1) viability assay was immediately performed on the cells after the conditioned medium was collected using a WST1 reagent purchased from Roche. The concentration of IL-6 obtained from ELISA was normalized by the WST1 data.

[2] = target: T1, biotinylated human IL-17 (binding to IL17R/Fc) (Homo sapiens, UniProt Q16552); assay: IL-17 competition ELISA II (captured IL17R/Fc, biotinylated IL-17)
T1 construct: purchased R&D Systems 317-ILB (IL-17, biotinylated); 177-IR (IL17R/Fc)
T1 sequence (Q16552 20-155 limits assumed): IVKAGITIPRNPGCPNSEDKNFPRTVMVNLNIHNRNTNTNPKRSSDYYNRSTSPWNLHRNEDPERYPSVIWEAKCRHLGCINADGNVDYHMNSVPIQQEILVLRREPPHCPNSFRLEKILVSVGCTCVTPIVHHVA
How it was run: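 Anti-human IgG-coated plates captured IL17R/Fc (10 nM), then compound (5-fold dilutions from 1 μM) and biotinylated human IL-17 (20 nM stock) were added for 30 min at room temperature in PBST. Bound IL-17 detected by streptavidin-HRP/TMB at 450 nm. IC50 from 4-parameter logistic fit between no-competitor and blank controls.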

[3] = target: T2, recombinant human IL17a (binding to its receptor IL17R) (Homo sapiens, UniProt Q16552); assay: IL-17 competition ELISA I (IL17a coated, IL17R/Fc binding)
T2 construct: purchased R&D Systems 317-ILB (IL17a); 177-IR (IL17R/Fc)
T2 sequence (Q16552 20-155 limits assumed): T1 sequence (Q16552 20-155 limits assumed)
How it was run: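 Plates coated with 20 nM recombinant human IL17a received compound dilutions and 12 nM IL17R/Fc (final) for 30 min at room temperature. Bound receptor was detected with HRP anti-human Fc and TMB, read at 450 nm. IC50 came from a 4-parameter logistic fit between no-competitor and blank controls.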

pIC50 [2] | pIC50 [3] | Structure (SMILES) | pIC50 [1]
> 7.00 | – | CN1CCCCCN(C)C(=O)[C@@H](CCC(N)=O)NC(=O)[C@@H](Cc2ccc(NC(=O)[C@@H](NC(=O)Cc3ccc(CO)cc3)C3CCCCC3)cc2)NC(=O)CC2(CCCC2)CC1=O [Compound 653] | 5.00 to 6.00
> 7.00 | – | C[C@H]1NC(=O)[C@@H](Cc2ccc(NC(=O)[C@@H](NC(=O)Cc3ccc(N(C)C)cc3)C3CCCCC3)cc2)NC(=O)CC2(CCCC2)CC(=O)N(C)CCCCCN(C)C1=O [Compound 601] | 5.00 to 6.00
> 7.00 | – | CN(CCOc1ccc(CC(=O)N[C@@H](Cc2ccccc2Cl)C(=O)Nc2ccc(C[C@H]3NC(=O)CC4(CCCC4)CC(=O)NCCCCCNC(=O)[C@@H](Cc4ccccc4)NC3=O)cc2)cc1)Cc1ccccc1 [Compound 438] | 6.00 to 7.00
> 7.00 | – | Cc1ccccc1C[C@H](NC(=O)Cc1ccc(F)cc1)C(=O)Nc1ccc(C[C@H]2NC(=O)CC3(CCCC3)CC(=O)NCCOCCOCCNC2=O)cc1 [Compound 478] | 5.00 to 6.00
> 7.00 | – | O=C1CC2(CCCC2)CC(=O)N[C@H](Cc2ccc(NC(=O)[C@H](Cc3ccc(F)cc3Cl)NC(=O)Cc3ccc(F)cc3)cc2)C(=O)NCCOCCOCCN1 [Compound 502] | 5.00 to 6.00
> 7.00 | – | CC(C)C[C@H]1NC(=O)[C@@H](Cc2ccc(NC(=O)[C@H](Cc3ccccc3Cl)NC(=O)Cc3ccc(CO)cc3)cc2)NC(=O)CC2(CCCC2)CC(=O)N[C@H](C(=O)O)CCCCNC1=O [Compound 660] | > 7.00
> 7.00 | – | O=C1CC2(CCCC2)CC(=O)N[C@H](Cc2ccc(NC(=O)[C@H](Cc3ccccc3Cl)NC(=O)c3ccccc3)cc2)C(=O)NCCOCCOCCN1 [Compound 522] | 5.00 to 6.00
> 7.00 | – | C[C@H]1NC(=O)[C@@H](Cc2ccc(NC(=O)[C@H](Cc3ccccc3Cl)NC(=O)C(F)(F)c3ccccc3)cc2)NC(=O)CC2(CCCC2)CC(=O)N(C)CCN(C)CCN(C)C1=O [Compound 540] | 5.00 to 6.00
> 7.00 | – | CN1C(=O)CC2(CCCC2)CC(=O)NCCCCCNC(=O)CNC(=O)[C@H]1Cc1ccc(NC(=O)[C@H](Cc2ccccc2Cl)NC(=O)Cc2ccccc2)cc1 [Compound 413] | < 5.00
> 7.00 | – | C[C@H]1NC(=O)[C@@H](Cc2ccc(NC(=O)[C@H](Cc3ccccc3Cl)NC(=O)Cc3ccc(F)cc3)cc2)N(C)C(=O)CC2(CCCC2)CC(=O)N(C)CCCCCNC1=O [Compound 480] | 5.00 to 6.00
> 7.00 | – | O=C1CC2(CCCC2)CC(=O)N[C@H](Cc2ccc(NC(=O)[C@H](Cc3ccccc3Cl)NC(=O)Cc3ccc(F)cc3)cc2)C(=O)NCC#CCCCCN1 [Compound 497] | 5.00 to 6.00
> 7.00 | – | O=C1CNC(=O)[C@@H](Cc2ccc(NC(=O)[C@H](Cc3ccc(F)cc3Cl)NC(=O)Cc3ccc(CO)cc3)cc2)NC(=O)CC2(CCCC2)CC(=O)NCCCCCN1 [Compound 408] | 6.00 to 7.00
> 7.00 | – | CC(O)[C@H]1NC(=O)[C@@H](Cc2ccc(NC(=O)[C@H](Cc3ccccc3Cl)NC(=O)C(F)(F)c3ccccc3)cc2)NC(=O)CC2(CCCC2)CC(=O)N(C)CCOCCN(C)C1=O (stereo partly drawn) [Compound 639] | 5.00 to 6.00
– | – | Cc1ccccc1C[C@H](NC(=O)C(F)(F)c1ccccc1)C(=O)Nc1ccc(C[C@H]2NC(=O)CC3(CCCC3)CC(=O)N(C)CCCCCNC(=O)[C@@H](C)NC2=O)cc1 [Compound 512] | 6.00 to 7.00
> 7.00 | 6.00 to 7.00 | CC[C@H](C)[C@H](NC(=O)Cc1ccccc1)C(=O)Nc1ccc(C[C@H]2NC(=O)CC3(CCCC3)CC(=O)NCCCCCNC(=O)CNC2=O)cc1 [Compound 311] | –
> 7.00 | 6.00 to 7.00 | O=C1CC2(CCCC2)CC(=O)N[C@H](Cc2ccc(NC(=O)[C@H](Cc3ccccc3Cl)NC(=O)Cc3ccccc3)cc2)C(=O)NCCCCCCN1 [Compound 345] | –
> 7.00 | 6.00 to 7.00 | O=C1CC2(CCCC2)CC(=O)N[C@H](Cc2ccc(NC(=O)[C@H](Cc3ccccc3Cl)NC(=O)Cc3ccccc3)cc2)C(=O)NCCOCCOCCN1 [Compound 292] | –
> 7.00 | 6.00 to 7.00 | CC(C)C[C@H](NC(=O)Cc1ccccc1)C(=O)Nc1ccc(C[C@H]2NC(=O)CC3(CCCC3)CC(=O)NCCCCCNC(=O)CNC2=O)cc1 [Compound 310] | –

pIC50 [2] | pIC50 [3] | Structure (SMILES) | pIC50 [1]
> 7.00 | 6.00 to 7.00 | CCCC[C@H](NC(=O)Cc1ccccc1)C(=O)Nc1ccc(C[C@H]2NC(=O)CC3(CCCC3)CC(=O)NCCCCCNC(=O)CNC2=O)cc1 [Compound 312] | –
> 7.00 | 6.00 to 7.00 | O=C1CNC(=O)[C@@H](Cc2ccc(NC(=O)[C@@H](NC(=O)c3cccc(O)c3)C3CCCCC3)cc2)NC(=O)CC2(CCCC2)CC(=O)NCCCCCN1 [Compound 376] | –
> 7.00 | 5.00 to 6.00 | O=C1CC2(CCCC2)CC(=O)N[C@H](Cc2ccc(NC(=O)[C@@H](NC(=O)Cc3ccc(CO)cc3)C3CCCCC3)cc2)C(=O)NCCCCCCCCCN1 [Compound 359] | –
> 7.00 | 6.00 to 7.00 | CN1CCCCCNC(=O)CC2(CCCC2)CC(=O)N[C@H](Cc2ccc(NC(=O)[C@@H](NC(=O)Cc3ccccc3)C3CCCCC3)cc2)C(=O)NCC1=O [Compound 335] | –
> 7.00 | 6.00 to 7.00 | CC(C)[C@H](NC(=O)Cc1ccccc1)C(=O)Nc1ccc(C[C@H]2NC(=O)CC3(CCCC3)CC(=O)NCCCCCNC(=O)CNC2=O)cc1 [Compound 313] | –
> 7.00 | 6.00 to 7.00 | O=C1CC2(CCCC2)CC(=O)N[C@H](Cc2ccc(NC(=O)[C@H](Cc3ccccc3Cl)NC(=O)Cc3ccc(CO)cc3)cc2)C(=O)NC/C=C/CCCCN1 [Compound 364] | –
6.00 to 7.00 | 5.00 to 6.00 | O=C1CC2(CCCC2)CC(=O)N[C@H](Cc2ccc(NC(=O)[C@@H](NC(=O)Cc3ccccc3)C3CCCCC3)cc2)C(=O)NCCCCCCCN1 [Compound 348] | –
6.00 to 7.00 | 5.00 to 6.00 | CN1CCCCCCCCN(C)C(=O)[C@@H](Cc2ccc(N(C)C(=O)[C@H](Cc3ccccc3Cl)N(C)C(=O)c3ccccc3)cc2)N(C)C(=O)CC2(CCCC2)CC1=O [Compound 372] | –
6.00 to 7.00 | 5.00 to 6.00 | O=C1CNC(=O)[C@@H](Cc2ccc(NC(=O)[C@@H](NC(=O)c3cccnc3)C3CCCCC3)cc2)NC(=O)CC2(CCCC2)CC(=O)NCCCCCN1 [Compound 362] | –
> 7.00 | > 7.00 | O=C1CNC(=O)[C@@H](Cc2ccc(NC(=O)[C@@H](NC(=O)Cc3ccc(F)c(F)c3)C3CCCCC3)cc2)NC(=O)CC2(CCCC2)CC(=O)NCCCCCN1 [Compound 373] | –
> 7.00 | 5.00 to 6.00 | O=C1CNC(=O)[C@@H](Cc2ccc(NC(=O)[C@@H](NC(=O)c3ccccc3)C3CCCCC3)cc2)NC(=O)CC2(CCCC2)CC(=O)NCCCCCN1 [Compound 379] | –
– | – | O=C1CNC(=O)[C@@H](Cc2ccc(NC(=O)[C@@H](NC(=O)Cc3ccc(F)cc3)C3CCCCC3)cc2)NC(=O)CC2(CCCC2)CC(=O)NCCCCCN1 [Compound 380] | 6.00 to 7.00
> 7.00 | 6.00 to 7.00 | O=C1CC2(CCCC2)CC(=O)N[C@H](Cc2ccc(NC(=O)[C@H](Cc3ccccc3Cl)NC(=O)Cc3ccc(CO)cc3)cc2)C(=O)NCCCCCCCN1 [Compound 356] | –
> 7.00 | 6.00 to 7.00 | O=C1CC2(CCCC2)CC(=O)N[C@H](Cc2ccc(NC(=O)[C@H](Cc3ccccc3Cl)NC(=O)Cc3ccccc3)cc2)C(=O)NCCCCCCCCN1 [Compound 259] | –
> 7.00 | 5.00 to 6.00 | O=C1CC2(CCCC2)CC(=O)N[C@H](Cc2ccc(NC(=O)[C@@H](NC(=O)Cc3ccccc3)C3CCCCC3)cc2)C(=O)NCCCCCCN1 [Compound 346] | –
> 7.00 | 6.00 to 7.00 | O=C1CNC(=O)[C@@H](Cc2ccc(NC(=O)[C@@H](NC(=O)Cc3ccccn3)C3CCCCC3)cc2)NC(=O)CC2(CCCC2)CC(=O)NCCCCCN1 [Compound 381] | –
– | – | O=C1CNC(=O)[C@@H](Cc2ccc(NC(=O)[C@H](Cc3ccccc3Cl)NC(=O)Cc3cccnc3)cc2)NC(=O)CC2(CCCC2)CC(=O)NCCCCCN1 [Compound 198] | 5.00 to 6.00
> 7.00 | > 7.00 | O=C1CNC(=O)[C@@H](Cc2ccc(NC(=O)[C@H](Cc3ccccc3Cl)NC(=O)Cc3c(F)cc(F)cc3F)cc2)NC(=O)CC2(CCCC2)CC(=O)NCCCCCN1 [Compound 325] | –
